Tests used:
MCP-1 promoter = assay: NHR-promoter luciferase screen, MCP-1 promoter; type: cell-based; conditions: for Normalized Luc. act., normalized to control / Luc. act., normalized to lacZ: MCP-1 promoter reporter; for Normalized Luc. act., normalized to control: HR without or with its ligand, relative to control; for Luc. act., normalized to lacZ: hormone receptor (HR) without or with its ligand; for mMCP-1 promoter reporter activity: transcription factor +/- ligand, control = 1.00
Protocol: (§1) The use, feasibility, and reproducibility of the functional NHR-promoter screen in a 48-well format have been tested validated. Briefly, there were co-expressed 50 ng of each NHR/NHR homodimer or NHR/RXR heterodimer with 100 ng promoter/luciferase construct and 50 ng of LacZ (as a control for transfection efficiency) in CV-1 cells using Fugene HD (Roche) as a transfection reagent (alternatively or additionally, a CMV-YFP construct can be used as a transfection control). Each of the nuclear hormone receptors that were used in these experiments was cloned into a pcDNA3.1 vector and comprised a C-terminally linked V5H6 tag. Twenty-four hours after transfection, appropriate ligands were added, where applicable, (see Table 5 for various ligands and concentrations and after 48 hrs, samples were assayed for luciferase and LacZ activity. To measure for luciferase activity 15 ul of sample was added to 30 ul of luciferase buffer (20 mM tricine, 1.07 mM MgCarbonate, 2.67 mM MgSulfate, 0.1 mM Naz-EDTA, 5 mM DTT, 5 mM ATP, 0.15 mg/ml CoA, 0.5 mM Luciferin), mixed briefly, and run in a Perkin Elmer Victor 5 luminometer. Thus, the functional NHR-promoter screen was used to observe the transcriptional activity of 29 promoters from various physiological pathways including inflammation, lipid and sugar metabolism, cholesterol transport, xenobiotic metabolism, and circadian rhythm.
(§2) The promoters that facilitate transcription of the indicated gene products that were tested using the protocols described herein are listed in the first row of the table. The nuclear hormone receptors and, where applicable, ligands that were assayed for their transcriptional effects on the promoters are listed in the first column of the table. The data represent the luciferase activity of each sample normalized to both the lacZ activity of that sample and to a control, e.g., no NHR or ligand, as customary in the art. As described previously, these normalizations allow the transcriptional activity of each reporter cell to be compared to other samples.
(§3) Tables 7-40 show the transcriptional effects of the hormone receptors, and, where applicable, ligands (orphan receptors are screened without ligand), on each individual promoter. […] The control data of each table are shown in their last rows.

hG6PD promoter = assay: NHR-promoter luciferase screen, hG6PD promoter; type: cell-based, human; conditions: for Luc. act., normalized to lacZ / Normalized Luc. act., normalized to control: G6PD promoter reporter, co-transfected HR, without or with its ligand; for Normalized Luc. act., normalized to control: relative to control; for luciferase activity normalized to lacZ activity and to a control, hG6PD: hG6PD promoter-luciferase, CV-1 cells, NHR +/- ligand, control = 1.00
Protocol: as §1, §2, §3

mUCP1 promoter = assay: NHR-promoter luciferase screen, mUCP1 promoter; type: cell-based, mouse; conditions: for Luc. act., normalized to lacZ / Normalized Luc. act., normalized to control: mUCP1 promoter reporter, co-transfected HR, with or without its ligand; for Normalized Luc. act., normalized to control: relative to control; for luciferase activity normalized to lacZ activity and to a control, mUCP!: mUCP! promoter-luciferase, CV-1 cells, NHR +/- ligand, control = 1.00
Protocol: as §1, §2, §3

hPPARg2 promoter = assay: NHR-promoter luciferase screen, hPPARg2 promoter; type: cell-based, human; conditions: for Luc. act., normalized to lacZ / Normalized Luc. act., normalized to control: PPARG2 promoter, hormone receptor with or without its ligand; for Normalized Luc. act., normalized to control: relative to control; for Results of assays of transcription factor (+/- ligand) with hPPARg2: Table 6d, luciferase activity relative to control (control = 1.00)
Protocol: as §1, §2, §3

hIFNg promoter = assay: NHR-promoter luciferase screen, hIFNg promoter; type: cell-based, human; conditions: for Luc. act., normalized to lacZ / Normalized Luc. act., normalized to control: IFNg promoter, HR component without or with ligand; for hIFNg promoter reporter activity: transcription factor +/- ligand, control = 1.00
Protocol: as §1, §2, §3

mGhrelin promoter = assay: NHR-promoter luciferase screen, mGhrelin promoter; type: cell-based, mouse; conditions: for Luc. act., normalized to lacZ / Normalized Luc. act., normalized to control: Table 8, mGhrelin; for Results of assays of transcription factor (+/- ligand) with mGhrelin: Table 6d, luciferase activity relative to control (control = 1.00)
Protocol: as §1, §2, §3

Molecule | Normalized Luc. act., normalized to control (MCP-1 promoter) | Luc. act., normalized to lacZ (MCP-1 promoter) | mMCP-1 promoter reporter activity (MCP-1 promoter) | Luc. act., normalized to lacZ (hG6PD promoter) | Normalized Luc. act., normalized to control (hG6PD promoter) | luciferase activity normalized to lacZ activity and to a control, hG6PD (hG6PD promoter) | Luc. act., normalized to lacZ (mUCP1 promoter) | Normalized Luc. act., normalized to control (mUCP1 promoter) | luciferase activity normalized to lacZ activity and to a control, mUCP! (mUCP1 promoter) | Luc. act., normalized to lacZ (hPPARg2 promoter) | Normalized Luc. act., normalized to control (hPPARg2 promoter) | Results of assays of transcription factor (+/- ligand) with hPPARg2 (hPPARg2 promoter) | Luc. act., normalized to lacZ (hIFNg promoter) | Normalized Luc. act., normalized to control (hIFNg promoter) | hIFNg promoter reporter activity (hIFNg promoter) | Luc. act., normalized to lacZ (mGhrelin promoter) | Normalized Luc. act., normalized to control (mGhrelin promoter) | Results of assays of transcription factor (+/- ligand) with mGhrelin (mGhrelin promoter) | luciferase/LacZ, mGhrelin (selected results) (mGhrelin promoter; mGhrelin promoter-luciferase, NHR +/- ligand, control = 1.0)
NR4a1: NR4a1 (NR4A1; NUR77), nuclear hormone receptor cDNA driver | 0.7 | 76.3 | 0.71 | 77.6 | 2.1 | 2.07 | 7.6 | 1.7 | 1.70 | 1.6 | 0.8 | 0.81 | 35.6 | 2.2 | 2.24 | 54.5 | 1.0 | 1.04 | 1.0
TLX: Tailless (homolog of drosophila) (NR2E1), cDNA driver | 0.6 | 60.9 | 0.57 | 107.9 | 2.9 | 2.89 | 2.8 | 0.6 | 0.63 | 0.9 | 0.4 | 0.43 | 28.0 | 1.8 | 1.76 | 86.6 | 1.7 | 1.66 | –
PPARa: Peroxisome proliferator activated receptor α (NR1C1), cDNA driver | 1.1 | 121.8 | 1.14 | 55.6 | 1.5 | 1.49 | 2.6 | 0.6 | 0.59 | 2.4 | 1.2 | 1.20 | 11.3 | 0.7 | 0.71 | 56.2 | 1.1 | 1.07 | –
SF-1: Steroidogenic Factor 1 (NR5A1, SF1), cDNA driver | 2.0 | 217.9 | 2.04 | 124.1 | 3.3 | 3.32 | 11.3 | 2.5 | 2.54 | 2.2 | 1.1 | 1.09 | 46.3 | 2.9 | 2.91 | 273.2 | 5.2 | 5.23 | –
HNF4a: Hepatocyte Nuclear Factor α (NR2A1), cDNA driver (protein, UniProt P41235 1-474, looked up) Hepatocyte nuclear factor …: MRLSKTLVDMDMADYSAALDPAYTTLEFENVQVLTMGNDTSPSEGTNLNAPNSLGVSALCAICGDRATGKHYGASSCDGCKGFFRRSVRKNHMYSCRFSRQCVVDKDKRNQCRYCRLKKCFRAGMKKEAVQNERDRISTRRSSYEDSSLPSINALLQAEVLSRQITSPVSGINGDIRAKKIASIADVCESMKEQLLVLVEWAKYIPAFCELPLDDQVALLRAHAGEHLLLGATKRSMVFKDVLLLGNDYIVPRHCPELAEMSRVSIRILDELVLPFQELQIDDNEYAYLKAIIFFDPDAKGLSDPGKIKRLRSQVQVSLEDYINDRQYDSRGRFGELLLLLPTLQSITWQMIEQIQFIKLFGMAKIDNLLQEMLLGGSPSDAPHAHHPLHPHLMQEHMGTNVIVANTMPTHLSNGQMCEWPRPRGQAATPETPQPSPPGGSGSEPYKLLPGAVATIVKPLSAIPQPTITKQEVI | 0.7 | 78.0 | 0.73 | 34.8 | 0.9 | 0.93 | 2.8 | 0.6 | 0.63 | 2.0 | 1.0 | 1.02 | 8.7 | 0.5 | 0.55 | 42.6 | 0.8 | 0.82 | –
LXRb: Liver X Receptor β (NR1H2), cDNA driver (protein, UniProt P55055 1-460, looked up) Oxysterols receptor LXR-beta: MSSPTTSSLDTPLPGNGPPQPGAPSSSPTVKEEGPEPWPGGPDPDVPGTDEASSACSTDWVIPDPEEEPERKRKKGPAPKMLGHELCRVCGDKASGFHYNVLSCEGCKGFFRRSVVRGGARRYACRGGGTCQMDAFMRRKCQQCRLRKCKEAGMREQCVLSEEQIRKKKIRKQQQESQSQSQSPVGPQGSSSSASGPGASPGGSEAGSQGSGEGEGVQLTAAQELMIQQLVAAQLQCNKRSFSDQPKVTPWPLGADPQSRDARQQRFAHFTELAIISVQEIVDFAKQVPGFLQLGREDQIALLKASTIEIMLLETARRYNHETECITFLKDFTYSKDDFHRAGLQVEFINPIFEFSRAMRRLGLDDAEYALLIAINIFSADRPNVQEPGRVEALQQPYVEALLSYTRIKRPQDQLRFPRMLMKLVSLRTLSSVHSEQVFALRLQDKKLPPLLSEIWDVHE | 1.9 | 198.9 | 1.86 | 46.8 | 1.3 | 1.25 | 17.2 | 3.9 | 3.88 | 2.4 | 1.2 | 1.19 | 19.35 | 1.2 | 1.22 | 46.7 | 0.9 | 0.89 | –
